Where two headings read alike, the source gives them in different places.
Assays:
[1] = target: T1, ATP Dependent Citrate Lyase (Mus musculus, UniProt Q91V92); assay: In vitro enzyme activity, liver homogenate: ATP dependent citrate lyase; assay type: biochemical, CF1 male mouse; conditions: ± SD, N = 6, read-out: Percent Control, in vitro enzyme activity
T1 construct: 10% homogenates of CF1 male mouse liver; from tissue; host or cells: CF1 male mouse liver, 10% homogenate
T1 sequence (Q91V92 1-1091): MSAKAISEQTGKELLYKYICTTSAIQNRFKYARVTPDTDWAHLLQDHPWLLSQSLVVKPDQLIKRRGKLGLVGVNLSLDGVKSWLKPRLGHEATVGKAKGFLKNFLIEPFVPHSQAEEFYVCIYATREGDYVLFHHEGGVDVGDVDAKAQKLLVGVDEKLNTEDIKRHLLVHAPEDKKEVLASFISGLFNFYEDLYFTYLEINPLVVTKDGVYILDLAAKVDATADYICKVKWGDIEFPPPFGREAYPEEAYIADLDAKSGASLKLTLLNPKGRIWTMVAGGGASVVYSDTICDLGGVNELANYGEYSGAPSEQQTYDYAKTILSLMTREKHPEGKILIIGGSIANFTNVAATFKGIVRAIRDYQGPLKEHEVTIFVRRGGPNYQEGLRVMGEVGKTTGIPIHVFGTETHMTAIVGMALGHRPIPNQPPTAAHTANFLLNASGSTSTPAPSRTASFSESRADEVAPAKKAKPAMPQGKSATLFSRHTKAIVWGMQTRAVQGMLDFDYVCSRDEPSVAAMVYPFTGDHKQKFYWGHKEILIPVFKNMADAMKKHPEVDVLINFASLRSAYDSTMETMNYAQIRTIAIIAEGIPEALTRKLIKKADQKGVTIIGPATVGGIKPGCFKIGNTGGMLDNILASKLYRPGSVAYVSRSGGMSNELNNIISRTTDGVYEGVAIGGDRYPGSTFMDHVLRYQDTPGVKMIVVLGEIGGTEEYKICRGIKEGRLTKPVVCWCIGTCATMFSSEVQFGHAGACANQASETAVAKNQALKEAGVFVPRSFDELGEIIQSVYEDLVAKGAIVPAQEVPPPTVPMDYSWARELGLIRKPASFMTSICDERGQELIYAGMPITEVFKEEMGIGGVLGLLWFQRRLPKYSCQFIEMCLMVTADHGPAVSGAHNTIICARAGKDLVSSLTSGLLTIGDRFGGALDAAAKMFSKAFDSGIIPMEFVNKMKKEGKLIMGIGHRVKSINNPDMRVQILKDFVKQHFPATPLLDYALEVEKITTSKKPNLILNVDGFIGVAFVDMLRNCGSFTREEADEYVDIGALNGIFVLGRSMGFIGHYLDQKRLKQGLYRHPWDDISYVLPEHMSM
Description: (§1) In vitro enzymatic studies were undertaken using 10% homogenates of CF1 male mouse liver with […] of compound 3,4,5,6-dibenzohomopiperidine. In addition, in vivo enzymatic studies were performed, again using 10% liver homogenates (prepared in 0.25 M sucrose plus 0.001 M (ethylenedinitrilo)-tetraacetic acid, ph 7.25 from CF1 male mice obtained after administering 3,4,5,6-dibenzohomopiperidine for 16 days at a concentration ranging from 10 to 60 mg/kg/day, intraperitoneally.
(§2) The following enzyme activities were determined by following standard literature procedures: acetyl coenzyme synthetase; adenosine triphosphate dependent citrate lyase; mitochondrial citrate exchange; cholesterol/7 hydroxylase; 3-hydroxy-3-methyl-glutaryl coenzyme A reductase; acetyl coenzyme A carboxylase activity; fatty acid synthetase activity; sn-glycerol-3-phosphate acyl transferase activity; phosphatidate phosphohydrolase activity; cholesterol acyl transferase; and heparin activated hepatic lypoprotein lipase. Protein was determined for all enzyme assays by the Lowry et al. technique (J. Biol. Chem, 193, 265 (1951)).

serum triglycerides = assay: Testing of Normal Rats: serum triglycerides, Example 8; assay type: in vivo, Sprague Dawley male rats; conditions: oral 20 mg/kg/day
Description: In Example 8 a set of six Sprague Dawley male rats, each weighing approximately 350 grams, were orally treated with a concentration of 20 mg per kilogram of rat weight per day, again suspended in a 1% aqueous solution of CMC. The dosage was applied orally by an intubation needle. On days 9 and 16 serum cholesterol and serum triglycerides blood levels of the rats were measured utilizing th procedure of Example 7.
A control group of six similar Sprague Dawley male rats were untreated but tested on Days 9 and 16 in accordance with the tests administered to the treated rats. Table 6 reports the percent control based on the decrease in serum cholesterol and serum triglycerides of the treated rats compared to the levels measured in the untreated control group.

serum cholesterol = assay: Testing of Normal Mice: serum cholesterol (modified Liebermann-Burchard), Example 7; assay type: in vivo, CF1 male mice; conditions: Mus musculus; for response vs control in vivo at 10 mg/kg: 10 mg/kg/day ip; for response vs control in vivo at 40 mg/kg: 40 mg/kg/day ip; for response vs control in vivo at 60 mg/kg: 60 mg/kg/day ip
Acetyl CoA Carboxylase = assay: In vivo enzyme activity, liver of treated mice: acetyl CoA carboxylase; set-up: species or system CF1 male mice; conditions: 16 days, ± SD
Description: as §1, §2

[2] = tested on: liver, small intestine and fecal materials; assay: Lipid Extraction Studies in Mice, Example 10; assay type: in vivo, CF1 male mice; conditions: ± SD
Description: The CF1 male mice that had been administered compound 3,4,5,6-dibenzohomopiperidine at four dosage levels as well as the control mice, were sacrificed and the liver, small intestine and fecal materials (24 hour collection) were removed, extracted and analyzed for cholesterol level, triglycerides level, neutral lipid content and phospholipid content. Table 8 reports the decrease in measured levels of these concentrations as a percentage of the level in the control. The control, it is noted, is always 100%.

[3] = tested on: sn-Glycerol-3-Phosphate Acyl Transferase; assay: In vitro enzyme activity, liver homogenate: sn-glycerol-3-phosphate acyl transferase; assay type: biochemical, CF1 male mouse; conditions: ± SD, N = 6
Description: as §1, §2

[4] = 216 h, day 9, ± SD, read-out: Serum Cholesterol Control, % Day 9
[5] = 384 h, day 16, ± SD, read-out: Serum Cholesterol Control, % Day 16

SMILES: c1ccc2c(c1)CNCc1ccccc1-2 [Compound 3, 3,4,5,6-dibenzohomopiperidine]
- remaining activity at 50 µM ([1]; 50 μM): 87 ± 5%
- remaining activity at 100 µM ([1]; 100 μM): 38 ± 3%
- remaining activity at 200 µM ([1]; 200 μM): 33 ± 4%
- % Control Serum Triglycerides Day 9 (serum triglycerides; day 9): 54%
- % Control Serum Triglycerides Day 16 (serum triglycerides; day 16): 54%
- response vs control in vivo at 10 mg/kg (serum cholesterol; [4]): 61 ± 5%
- response vs control in vivo at 40 mg/kg (serum cholesterol; [4]): 67 ± 6%
- response vs control in vivo at 60 mg/kg (serum cholesterol; [4]): 69 ± 5%
- response vs control in vivo at 10 mg/kg (serum cholesterol; [5]): 50 ± 5%
- response vs control in vivo at 40 mg/kg (serum cholesterol; [5]): 54 ± 4%
- response vs control in vivo at 60 mg/kg (serum cholesterol; [5]): 51 ± 4%
- Percent Control, in vivo enzyme activity (Acetyl CoA Carboxylase; 10 mg/kg/day ip): 54 ± 6%
- Percent Control, in vivo enzyme activity (Acetyl CoA Carboxylase; 20 mg/kg/day ip): 57 ± 7%
- Percent Control, in vivo enzyme activity (Acetyl CoA Carboxylase; 40 mg/kg/day ip): 47 ± 5%
- Percent Control, in vivo enzyme activity (Acetyl CoA Carboxylase; 60 mg/kg/day ip): 60 ± 4%
- Cholesterol, concentration as a function of control ([2]; 20 mg/kg): 55 ± 5%
- Lipid wt, concentration as a function of control ([2]; 20 mg/kg): 62 ± 6%
- Neutral lipid, concentration as a function of control ([2]; 20 mg/kg): 50 ± 5%
- Phospholipid, concentration as a function of control ([2]; 20 mg/kg): 100 ± 7%
- Protein, concentration as a function of control ([2]; 20 mg/kg): 95 ± 8%
- Triglyceride, concentration as a function of control ([2]; 20 mg/kg): 37 ± 4%
- Cholesterol, concentration as a function of control ([2]; 40 mg/kg): 114 ± 8%
- Lipid wt, concentration as a function of control ([2]; 40 mg/kg): 112 ± 9%
- Neutral lipid, concentration as a function of control ([2]; 40 mg/kg): 95 ± 6%
- Phospholipid, concentration as a function of control ([2]; 40 mg/kg): 84 ± 7%
- Protein, concentration as a function of control ([2]; 40 mg/kg): 103 ± 7%
- Triglyceride, concentration as a function of control ([2]; 40 mg/kg): 70 ± 5%
- Cholesterol, concentration as a function of control ([2]; 60 mg/kg): 99 ± 5%
- Lipid wt, concentration as a function of control ([2]; 60 mg/kg): 106 ± 8%
- Neutral lipid, concentration as a function of control ([2]; 60 mg/kg): 90 ± 6%
- Phospholipid, concentration as a function of control ([2]; 60 mg/kg): 91 ± 8%
- Protein, concentration as a function of control ([2]; 60 mg/kg): 104 ± 8%
- Triglyceride, concentration as a function of control ([2]; 60 mg/kg): 74 ± 6%
- Cholesterol, concentration as a function of control ([2]; 10 g/kg (so in the source)): 83 ± 6%
- Lipid wt, concentration as a function of control ([2]; 10 g/kg (so in the source)): 92 ± 7%
- Neutral lipid, concentration as a function of control ([2]; 10 g/kg (so in the source)): 75 ± 6%
- Phospholipid, concentration as a function of control ([2]; 10 g/kg (so in the source)): 78 ± 6%
- Protein, concentration as a function of control ([2]; 10 g/kg (so in the source)): 98 ± 9%
- Triglyceride, concentration as a function of control ([2]; 10 g/kg (so in the source)): 48 ± 4%
- Percent Control, in vitro enzyme activity ([3]; 50 μM): 35 ± 6%
- Percent Control, in vitro enzyme activity ([3]; 100 μM): 34 ± 5%
- Percent Control, in vitro enzyme activity ([3]; 200 μM): 51 ± 4%

From US4689326A, “Process for controlling hyperlipidemia” (Research Corporation, priority 1985, dated 1987)
